Key:
Assay in all cases: relative viability (nuclei count vs DMSO), 5 days (fraction); higher = more cells survive
COR-L 105 = test system: COR-L 105
Method in brief: (§1)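 Relative viability was taken as the ratio of nuclei in treated wells to nuclei in vehicle wells. Lung cancer cell lines in 1536-well plates received compounds by pin tool one day after seeding, either one drug alone or a fixed anchor-drug dose plus five library-drug doses (not always all listed) in √10 steps. Nuclei were counted on 4× images after 5 days of treatment, and values are medians of duplicate plates.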

LCLC-103H = test system: LCLC-103H
Method in brief: as §1

NCI-H1915 = test system: NCI-H1915
Method in brief: as §1

SW 1573 = test system: SW 1573
Method in brief: as §1

NCI-H522 = test system: NCI-H522
Method in brief: as §1

NCI-H23 = test system: NCI-H23
Method in brief: as §1

HARA = test system: HARA
Method in brief: as §1

NCI-H1437 = test system: NCI-H1437
Method in brief: as §1

HCC-366 = test system: HCC-366
Method in brief: as §1

EMC-BAC-2 = test system: EMC-BAC-2
Method in brief: as §1

NCI-H460 = test system: NCI-H460
Method in brief: as §1

SK-LU-1 = test system: SK-LU-1
Method in brief: as §1

CAL-12T = test system: CAL-12T
Method in brief: as §1

NCI-H2009 = test system: NCI-H2009
Method in brief: as §1

NCI-H1395 = test system: NCI-H1395
Method in brief: as §1

HOP-62 = test system: HOP-62
Method in brief: as §1

HCC-827 = test system: HCC-827
Method in brief: as §1

NCI-H727 = test system: NCI-H727
Method in brief: as §1

A-427 = test system: A-427
Method in brief: as §1

NCI-H2228 = test system: NCI-H2228
Method in brief: as §1

NCI-H1755 = test system: NCI-H1755
Method in brief: as §1

## CC(=O)O[C@@]12CO[C@@H]1C[C@H](O)[C@@]1(C)C(=O)[C@H](O)C3=C(C)[C@@H](OC(=O)[C@H](O)[C@@H](NC(=O)OC(C)(C)C)c4ccccc4)C[C@@](O)([C@@H](OC(=O)c4ccccc4)[C@H]21)C3(C)C [Docetaxel] + Cc1cc(Nc2cc(N3CCN(C)CC3)nc(Sc3ccc(NC(=O)C4CC4)cc3)n2)n[nH]1 [Tozasertib] (partner 0.1 µM)
COR-L 105; first compound 0.0002 µM
  relative viability: 0.323
COR-L 105; first compound 0.000632 µM
  relative viability: 0.382
COR-L 105; first compound 0.002 µM
  relative viability: 0.36
COR-L 105; first compound 0.006325 µM
  relative viability: 0.384
COR-L 105; first compound 0.02 µM
  relative viability: 0.344
LCLC-103H; first compound 0.0002 µM
  relative viability: 0.48
LCLC-103H; first compound 0.000632 µM
  relative viability: 0.39
LCLC-103H; first compound 0.002 µM
  relative viability: 0.358
LCLC-103H; first compound 0.006325 µM
  relative viability: 0.377
LCLC-103H; first compound 0.02 µM
  relative viability: 0.296
NCI-H1915; first compound 0.0002 µM
  relative viability: 0.426
NCI-H1915; first compound 0.000632 µM
  relative viability: 0.322
NCI-H1915; first compound 0.002 µM
  relative viability: 0.247
NCI-H1915; first compound 0.006325 µM
  relative viability: 0.201
NCI-H1915; first compound 0.02 µM
  relative viability: 0.142
SW 1573; first compound 0.0002 µM
  relative viability: 0.24
SW 1573; first compound 0.000632 µM
  relative viability: 0.189
SW 1573; first compound 0.002 µM
  relative viability: 0.256
SW 1573; first compound 0.02 µM
  relative viability: 0.199
NCI-H522; first compound 0.0002 µM
  relative viability: 0.559
NCI-H522; first compound 0.000632 µM
  relative viability: 0.451
NCI-H522; first compound 0.002 µM
  relative viability: 0.527
NCI-H522; first compound 0.006325 µM
  relative viability: 0.551
NCI-H522; first compound 0.02 µM
  relative viability: 0.585
NCI-H23; first compound 0.0002 µM
  relative viability: 0.39
NCI-H23; first compound 0.000632 µM
  relative viability: 0.314
NCI-H23; first compound 0.002 µM
  relative viability: 0.195
NCI-H23; first compound 0.006325 µM
  relative viability: 0.198
NCI-H23; first compound 0.02 µM
  relative viability: 0.166
HARA; first compound 0.0002 µM
  relative viability: 0.0918
HARA; first compound 0.000632 µM
  relative viability: 0.102
HARA; first compound 0.002 µM
  relative viability: 0.0951
HARA; first compound 0.006325 µM
  relative viability: 0.0945
HARA; first compound 0.02 µM
  relative viability: 0.0738
NCI-H1437; first compound 0.0002 µM
  relative viability: 0.354
NCI-H1437; first compound 0.000632 µM
  relative viability: 0.374
NCI-H1437; first compound 0.002 µM
  relative viability: 0.241
NCI-H1437; first compound 0.006325 µM
  relative viability: 0.273
NCI-H1437; first compound 0.02 µM
  relative viability: 0.201
HCC-366; first compound 0.0002 µM
  relative viability: 0.097
HCC-366; first compound 0.000632 µM
  relative viability: 0.0628
HCC-366; first compound 0.002 µM
  relative viability: 0.0488
HCC-366; first compound 0.006325 µM
  relative viability: 0.0475
HCC-366; first compound 0.02 µM
  relative viability: 0.0231
EMC-BAC-2; first compound 0.0002 µM
  relative viability: 0.296
EMC-BAC-2; first compound 0.000632 µM
  relative viability: 0.321
EMC-BAC-2; first compound 0.006325 µM
  relative viability: 0.26
EMC-BAC-2; first compound 0.02 µM
  relative viability: 0.185
NCI-H460; first compound 0.0002 µM
  relative viability: 0.358
NCI-H460; first compound 0.000632 µM
  relative viability: 0.368
NCI-H460; first compound 0.002 µM
  relative viability: 0.0923
NCI-H460; first compound 0.006325 µM
  relative viability: 0.0604
NCI-H460; first compound 0.02 µM
  relative viability: 0.0207
SK-LU-1; first compound 0.0002 µM
  relative viability: 0.297
SK-LU-1; first compound 0.000632 µM
  relative viability: 0.302
SK-LU-1; first compound 0.002 µM
  relative viability: 0.308
SK-LU-1; first compound 0.006325 µM
  relative viability: 0.252
SK-LU-1; first compound 0.02 µM
  relative viability: 0.217
CAL-12T; first compound 0.0002 µM
  relative viability: 0.319
CAL-12T; first compound 0.000632 µM
  relative viability: 0.32
CAL-12T; first compound 0.002 µM
  relative viability: 0.227
CAL-12T; first compound 0.006325 µM
  relative viability: 0.251
CAL-12T; first compound 0.02 µM
  relative viability: 0.142
NCI-H2009; first compound 0.0002 µM
  relative viability: 0.626
NCI-H2009; first compound 0.000632 µM
  relative viability: 0.747
NCI-H2009; first compound 0.002 µM
  relative viability: 0.682
NCI-H2009; first compound 0.006325 µM
  relative viability: 0.553
NCI-H2009; first compound 0.02 µM
  relative viability: 0.302
NCI-H1395; first compound 0.0002 µM
  relative viability: 0.698
NCI-H1395; first compound 0.000632 µM
  relative viability: 0.753
NCI-H1395; first compound 0.002 µM
  relative viability: 0.59
NCI-H1395; first compound 0.006325 µM
  relative viability: 0.372
NCI-H1395; first compound 0.02 µM
  relative viability: 0.325
HOP-62; first compound 0.0002 µM
  relative viability: 0.353
HOP-62; first compound 0.000632 µM
  relative viability: 0.401
HOP-62; first compound 0.002 µM
  relative viability: 0.281
HOP-62; first compound 0.006325 µM
  relative viability: 0.277
HCC-827; first compound 0.0002 µM
  relative viability: 0.406
HCC-827; first compound 0.000632 µM
  relative viability: 0.412
HCC-827; first compound 0.002 µM
  relative viability: 0.328
HCC-827; first compound 0.006325 µM
  relative viability: 0.332
HCC-827; first compound 0.02 µM
  relative viability: 0.295
NCI-H727; first compound 0.0002 µM
  relative viability: 0.781
NCI-H727; first compound 0.000632 µM
  relative viability: 0.614
NCI-H727; first compound 0.002 µM
  relative viability: 0.611
NCI-H727; first compound 0.006325 µM
  relative viability: 0.518
NCI-H727; first compound 0.02 µM
  relative viability: 0.398
A-427; first compound 0.0002 µM
  relative viability: 0.176
A-427; first compound 0.000632 µM
  relative viability: 0.237
A-427; first compound 0.002 µM
  relative viability: 0.193
A-427; first compound 0.006325 µM
  relative viability: 0.162
A-427; first compound 0.02 µM
  relative viability: 0.132
NCI-H2228; first compound 0.0002 µM
  relative viability: 0.242
NCI-H2228; first compound 0.000632 µM
  relative viability: 0.169
NCI-H2228; first compound 0.002 µM
  relative viability: 0.127
NCI-H2228; first compound 0.006325 µM
  relative viability: 0.168
NCI-H2228; first compound 0.02 µM
  relative viability: 0.121
NCI-H1755; first compound 0.0002 µM
  relative viability: 0.62
NCI-H1755; first compound 0.000632 µM
  relative viability: 0.609
NCI-H1755; first compound 0.002 µM
  relative viability: 0.46
NCI-H1755; first compound 0.006325 µM
  relative viability: 0.335
NCI-H1755; first compound 0.02 µM
  relative viability: 0.373
